Assay [1] has as its target T1, Gonadotropin-releasing hormone receptor (Rattus norvegicus, UniProt P30969).
T1 sequence (P30969 whole entry): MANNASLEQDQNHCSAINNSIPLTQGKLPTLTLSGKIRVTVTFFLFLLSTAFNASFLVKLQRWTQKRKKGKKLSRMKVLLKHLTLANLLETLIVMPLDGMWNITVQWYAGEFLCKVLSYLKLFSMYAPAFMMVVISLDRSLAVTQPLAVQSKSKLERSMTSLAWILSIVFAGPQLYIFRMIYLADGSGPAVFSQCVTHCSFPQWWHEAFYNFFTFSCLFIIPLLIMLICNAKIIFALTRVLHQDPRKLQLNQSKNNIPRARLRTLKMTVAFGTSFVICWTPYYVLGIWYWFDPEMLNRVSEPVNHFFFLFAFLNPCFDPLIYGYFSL
Briefly: Inhibitory concentration towards rat leutinizing releasing hormone receptor.

Assay [2] has as its target T2, Gonadotropin-releasing hormone receptor (Homo sapiens, UniProt P30968).
T2 sequence (P30968 whole entry): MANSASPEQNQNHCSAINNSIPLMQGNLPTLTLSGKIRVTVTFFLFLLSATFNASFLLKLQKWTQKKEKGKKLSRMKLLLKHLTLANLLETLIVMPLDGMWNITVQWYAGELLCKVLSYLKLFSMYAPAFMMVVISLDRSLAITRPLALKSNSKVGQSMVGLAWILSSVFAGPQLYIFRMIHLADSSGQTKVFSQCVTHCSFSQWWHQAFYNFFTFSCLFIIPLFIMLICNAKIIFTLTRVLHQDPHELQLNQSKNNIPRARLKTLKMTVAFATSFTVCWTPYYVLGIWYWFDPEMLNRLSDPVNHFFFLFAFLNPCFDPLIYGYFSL
Briefly: Inhibitory concentration towards human leutinizing releasing hormone receptor.

From ChEMBL document CHEMBL1144305, “Benzimidazole derivatives as novel nonpeptide luteinizing hormone-releasing hormone (LHRH) antagonists. Part 2: Benzimidazole-5-sulfonamides” (Bioorg Med Chem Lett, 2005) come the findings set out here.

pIC50: −log10 of the molar value. Where only a bound is given, the exact number is not on record here.

For `CCCc1nc2cc(S(=O)(=O)NCc3ccc(F)cc3)ccc2n1Cc1ccccc1`, the pIC50 in assay [1] and in assay [2] was less than 5.00 throughout.
`CC(C)(C)NC(=O)NCCc1nc2cc(S(=O)(=O)NCc3ccc(F)c(F)c3)ccc2n1Cc1ccccc1`: the pIC50 in assay [1] is 6.96; in assay [2] it was 6.77.
For `CC(C)(C)NC(=O)NCCc1nc2cc(S(=O)(=O)NCc3ccc(C(F)(F)F)c(F)c3)ccc2n1Cc1ccccc1`, the pIC50 in assay [1] was 7.29; in assay [2], 7.24.
Taken in the same sequence, the figures for `CC(C)c1nc2cc(S(=O)(=O)NCc3ccc(F)cc3)ccc2n1Cc1ccccc1` were 6.16 and 6.41.
Taken in the same sequence, the figures for `CC(C)(C)NC(=O)NCCc1nc2cc(S(=O)(=O)NCc3ccccc3F)ccc2n1Cc1ccccc1` were 6.35 and 6.12.
The corresponding values for `COc1ccc(CNS(=O)(=O)c2ccc3c(c2)nc(CCNC(=O)NC(C)(C)C)n3Cc2ccccc2)cc1` are 6.70 and 6.47.
Regarding `CC(C)(C)OC(=O)NCCc1nc2cc(S(=O)(=O)NCc3ccc(F)cc3)ccc2n1Cc1ccccc1`, the figures for the pIC50 in assay [1] and in assay [2] were 6.27 and 6.13, respectively.
Taken in the same sequence, the figures for `CC(C)(C)NC(=O)NCCc1nc2cc(S(=O)(=O)NCc3ccc(Cl)cc3Cl)ccc2n1Cc1ccccc1` were 7.85 and 7.66.
The corresponding values for `CC(C)NC(=O)NCCc1nc2cc(S(=O)(=O)NCc3ccc(F)cc3)ccc2n1Cc1ccccc1` are 7.10 and 6.82.
On to `CC(C)(C)NC(=O)NCCc1nc2cc(S(=O)(=O)NCc3ccc(Cl)cc3)ccc2n1Cc1ccccc1`, for which the pIC50 is 8.41 in assay [1] and 8.38 in assay [2].
The corresponding values for `CC(C)(C)CNC(=O)NCCc1nc2cc(S(=O)(=O)NCc3ccc(F)cc3)ccc2n1Cc1ccccc1` are 7.52 and 6.96.
Taken in the same sequence, the figures for `CC(C)(C)NC(=O)CCCc1nc2cc(S(=O)(=O)NCc3ccc(F)cc3)ccc2n1Cc1ccccc1` were 6.64 and 6.40.
Turning to `NCCc1nc2cc(S(=O)(=O)NCc3ccc(F)cc3)ccc2n1Cc1ccccc1`, the pIC50 in assay [1] and in assay [2] was less than 5.00 in each case.
Take `O=C(NCCc1nc2cc(S(=O)(=O)NCc3ccc(F)cc3)ccc2n1Cc1ccccc1)Nc1ccccc1Cl`: the pIC50 in assay [1] is 7.30; in assay [2], 7.08.
The corresponding values for `CCNC(=O)NCCc1nc2cc(S(=O)(=O)NCc3ccc(F)cc3)ccc2n1Cc1ccccc1` are 6.42 and 6.16.
`O=S(=O)(NCc1ccc(F)cc1)c1ccc2c(c1)nc(C1CC1)n2Cc1ccccc1`: the pIC50 in assay [1] was 5.80; in assay [2] it was 5.72.
Taken in the same sequence, the figures for `CC(C)(C)NC(=O)NCCc1nc2cc(S(=O)(=O)NCc3ccc(F)cc3)ccc2n1Cc1ccccc1` were 7.92 and 7.70.
Taken in the same sequence, the figures for `CC(C)(C)NC(=O)NCCCc1nc2cc(S(=O)(=O)NCc3ccc(F)cc3)ccc2n1Cc1ccccc1` were 7.08 and 6.74.
The corresponding values for `CC(C)(C)CC(=O)NCCc1nc2cc(S(=O)(=O)NCc3ccc(F)cc3)ccc2n1Cc1ccccc1` are 6.08 and 5.59.
With `O=C(NCCc1nc2cc(S(=O)(=O)NCc3ccc(F)cc3)ccc2n1Cc1ccccc1)Nc1ccccc1F`, the values for the negative logarithm of the IC50 (pIC50) in assay [1] and in assay [2] were 7.28 and 7.18, respectively.
Taken in the same sequence, the figures for `CC(C)(C)NC(=O)NCCc1nc2cc(S(=O)(=O)NCc3ccccc3)ccc2n1Cc1ccccc1` were 6.51 and 6.31.
